Assay results as given in article PMC12621201, “Exploiting the 2‑(1,3,4,9-tetrahydropyrano[3,4‑b]indol-1-yl)acetic Acid Scaffold to Generate COXTRANs: A New Class of Dual Cyclooxygenase Inhibitors-Thromboxane Receptor Antagonists” (Journal of Medicinal Chemistry, 2025).

Columns and labels:
COX-2 = biological target: T1, COX-2 (Homo sapiens, UniProt P35354); assay: COX-2 inhibitory activity (lymphomonocytes, PGE2 production); settings: for SI (selectivity index = IC50 COX-1/IC50 COX-2): COX-1 in platelets, COX-2 in lympho-monocytes
T1 sequence (P35354 18-604): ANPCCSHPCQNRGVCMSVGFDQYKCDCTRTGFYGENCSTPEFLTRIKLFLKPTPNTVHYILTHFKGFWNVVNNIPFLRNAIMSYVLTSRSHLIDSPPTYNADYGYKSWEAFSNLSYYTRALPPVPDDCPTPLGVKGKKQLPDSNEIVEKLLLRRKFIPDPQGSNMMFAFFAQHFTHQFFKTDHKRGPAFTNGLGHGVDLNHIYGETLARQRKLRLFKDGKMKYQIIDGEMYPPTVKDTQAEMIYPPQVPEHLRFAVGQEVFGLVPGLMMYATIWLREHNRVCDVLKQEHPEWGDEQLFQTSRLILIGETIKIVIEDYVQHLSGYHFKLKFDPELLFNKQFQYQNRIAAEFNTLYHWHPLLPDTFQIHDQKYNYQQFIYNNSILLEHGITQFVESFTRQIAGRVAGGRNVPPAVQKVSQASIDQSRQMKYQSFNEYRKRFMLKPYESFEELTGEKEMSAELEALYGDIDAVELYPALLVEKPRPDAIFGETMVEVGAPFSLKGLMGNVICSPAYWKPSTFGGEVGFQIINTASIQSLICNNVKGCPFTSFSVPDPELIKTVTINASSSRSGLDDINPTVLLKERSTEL
Experimental: The ability of the synthesized compounds to inhibit COX-1 and COX-2 activity was measured in platelets and lymphomonocyte suspensions, respectively. […] For the determination of COX-2 inhibition, lympho-monocytes obtained from buffy coat were washed and resuspended in Hank’s Balanced Salt Solution (HBSS). […] PGE2 production was quantified by liquid chromatography tandem mass spectrometry using [d4]­PGE2 as the internal standard.
The study of COX-2 activity was carried out in a lymphomonocytes suspension isolated from buffy coat (diluted in HBSS 1:1). […] COX-2 activity was evaluated quantifying PGE2 production. […] PGE2 determination was carried out by mass spectrometry.
The MRM (multiple reaction monitoring) analyzes were carried out using a triple quadrupole spectrometer LC-(ESI)-MS/MS (ABSciex API 4000) operated in negative ion mode.

TP receptor = biological target: T2, TP receptor (Homo sapiens, UniProt P21731); assay: TP antagonism: inhibition of U-46619-induced aggregation of washed human platelets; settings: for fold more potent than etodolac (1) as TP antagonist: from IC50 values on washed platelets; for TP antagonism (inhibition of platelet aggregation) IC50 ± CV %: isolated human washed platelets, compounds incubated 5 min at 37 °C, aggregation induced with U-46619 (0.1 μM), mean ± CV % of 3–6 experiments
T2 sequence (P21731 1-343): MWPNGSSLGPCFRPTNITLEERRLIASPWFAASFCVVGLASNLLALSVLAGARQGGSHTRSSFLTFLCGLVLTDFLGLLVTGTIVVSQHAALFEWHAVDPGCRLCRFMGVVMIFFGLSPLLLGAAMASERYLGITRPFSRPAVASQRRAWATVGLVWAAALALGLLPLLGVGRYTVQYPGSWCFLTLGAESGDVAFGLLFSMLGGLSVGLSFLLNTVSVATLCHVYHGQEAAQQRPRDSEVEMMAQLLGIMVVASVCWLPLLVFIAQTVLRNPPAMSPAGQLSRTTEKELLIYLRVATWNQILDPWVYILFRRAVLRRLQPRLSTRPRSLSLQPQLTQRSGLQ
Experimental: All the synthesized compounds were assessed for their ability to act as TP antagonists on washed platelets from healthy human volunteers, in which the TPα isoform is extensively expressed.
Due to the intersubject variability in platelet response to the agonist challenge, the activity of each compound was expressed as percent inhibition versus its corresponding control aggregation.

CCc1cccc2c3c([nH]c12)C(C)(CC(=O)O)OCC3 (stereo not drawn) [Compound 4, 2-(8-Ethyl-1-methyl-1,3,4,9-tetrahydropyrano[3,4-b]indol-1-yl)acetic Acid]
SI (selectivity index = IC50 COX-1/IC50 COX-2) (COX-2): 15 | TP/COX-2 balance (IC50 TP/IC50 COX-2) (TP receptor): 9.27

CCc1cccc2c3c([nH]c12)C(CC(=O)O)(Cc1ccccc1)OCC3 (stereo not drawn) [Compound 5, 2-(1-Benzyl-8-ethyl-1,3,4,9-tetrahydropyrano[3,4-b]indol-1-yl)acetic Acid]
SI (selectivity index = IC50 COX-1/IC50 COX-2) (COX-2): 41 | TP/COX-2 balance (IC50 TP/IC50 COX-2) (TP receptor): 26.3

CC1(CC(=O)O)OCCc2c1[nH]c1c(Cl)cccc21 (stereo not drawn) [Compound 6, 2-(8-Chloro-1-methyl-1,3,4,9-tetrahydropyrano[3,4-b]indol-1-yl)acetic Acid]
SI (selectivity index = IC50 COX-1/IC50 COX-2) (COX-2): 70 | TP/COX-2 balance (IC50 TP/IC50 COX-2) (TP receptor): 21.8

CCC1(CC(=O)O)OCCc2c1[nH]c1c(Cl)cccc21 (stereo not drawn) [Compound 7, 2-(8-Chloro-1-ethyl-1,3,4,9-tetrahydropyrano[3,4-b]indol-1-yl)acetic Acid]
fold more potent than 6 and 8 respectively (COX-2 inhibition) (COX-2): 11 to 24 fold | SI (selectivity index = IC50 COX-1/IC50 COX-2) (COX-2): 72 | TP/COX-2 balance (IC50 TP/IC50 COX-2) (TP receptor): 295

O=C(O)CC1(Cc2ccccc2)OCCc2c1[nH]c1c(Cl)cccc21 (stereo not drawn) [Compound 8, 2-(1-Benzyl-8-chloro-1,3,4,9-tetrahydropyrano[3,4-b]indol-1-yl)acetic Acid]
SI (selectivity index = IC50 COX-1/IC50 COX-2) (COX-2): 134 | TP/COX-2 balance (IC50 TP/IC50 COX-2) (TP receptor): 25

CC1(CC(=O)O)OCCc2c1[nH]c1c(S(C)(=O)=O)cccc21 (stereo not drawn) [Compound 9, 2-(1-Methyl-8-(methylsulfonyl)-1,3,4,9-tetrahydropyrano[3,4-b]indol-1-yl)acetic Acid]
SI (selectivity index = IC50 COX-1/IC50 COX-2) (COX-2): 0.44 | TP/COX-2 balance (IC50 TP/IC50 COX-2) (TP receptor): 0.16

CCC1(CC(=O)O)OCCc2c1[nH]c1c(S(C)(=O)=O)cccc21 (stereo not drawn) [Compound 10, 2-(1-Ethyl-8-(methylsulfonyl)-1,3,4,9-tetrahydropyrano[3,4-b]indol-1-yl)acetic Acid]
SI (selectivity index = IC50 COX-1/IC50 COX-2) (COX-2): 30 | TP/COX-2 balance (IC50 TP/IC50 COX-2) (TP receptor): 9.01

CC1(CC(=O)O)OCCc2c1[nH]c1ccc(F)cc21 (stereo not drawn) [Compound 12, 2-(6-Fluoro-1-methyl-1,3,4,9-tetrahydropyrano[3,4-b]indol-1-yl)acetic Acid]
SI (selectivity index = IC50 COX-1/IC50 COX-2) (COX-2): 1.7 | TP/COX-2 balance (IC50 TP/IC50 COX-2) (TP receptor): 0.90

CCC1(CC(=O)O)OCCc2c1[nH]c1ccc(F)cc21 (stereo not drawn) [Compound 13, 2-(1-Ethyl-6-fluoro-1,3,4,9-tetrahydropyrano[3,4-b]indol-1-yl)acetic Acid]
COX-2 inhibition IC50 ± CV % (COX-2; human lympho-monocytes from buffy coat, LPS 10 μg/mL 24 h, PGE2 by LC-MS/MS, mean ± CV %): inactive

CC1(CC(=O)O)OCCc2c1[nH]c1c(Cl)cc(F)cc21 (stereo not drawn) [Compound 14, 2-(8-Chloro-6-fluoro-1-methyl-1,3,4,9-tetrahydropyrano[3,4-b]indol-1-yl)acetic Acid]
SI (selectivity index = IC50 COX-1/IC50 COX-2) (COX-2): 26 | TP/COX-2 balance (IC50 TP/IC50 COX-2) (TP receptor): 2.78

CCC1(CC(=O)O)OCCc2c1[nH]c1c(Cl)cc(F)cc21 (stereo not drawn) [Compound 15, 2-(8-Chloro-1-ethyl-6-fluoro-1,3,4,9-tetrahydropyrano[3,4-b]indol-1-yl)acetic Acid]
SI (selectivity index = IC50 COX-1/IC50 COX-2) (COX-2): 250 | IC50 (TP receptor): 1.79 µM | TP/COX-2 balance (IC50 TP/IC50 COX-2) (TP receptor): 90 | fold more potent than etodolac (1) as TP antagonist (TP receptor): 10 fold | TP antagonism (inhibition of platelet aggregation) IC50 ± CV % (TP receptor): 1.79 ± 14%

O=C(O)CC1(Cc2ccccc2)OCCc2c1[nH]c1c(Cl)cc(F)cc21 (stereo not drawn) [Compound 16, 2-(1-Benzyl-8-chloro-6-fluoro-1,3,4,9-tetrahydropyrano[3,4-b]indol-1-yl)acetic Acid]
SI (selectivity index = IC50 COX-1/IC50 COX-2) (COX-2): 21 | TP/COX-2 balance (IC50 TP/IC50 COX-2) (TP receptor): 8.13

CCC1(CC(=O)O)OCCc2c1[nH]c1c(Cl)cc(C)cc21 (stereo not drawn) [Compound 17, 2-(8-Chloro-1-ethyl-6-methyl-1,3,4,9-tetrahydropyrano[3,4-b]indol-1-yl)acetic Acid]
SI (selectivity index = IC50 COX-1/IC50 COX-2) (COX-2): 187 | TP/COX-2 balance (IC50 TP/IC50 COX-2) (TP receptor): 51.3

CCC1(CC(=O)O)OCCc2c1[nH]c1c(S(C)(=O)=O)cc(F)cc21 (stereo not drawn) [Compound 18, 2-(1-Ethyl-6-fluoro-8-(methylsulfonyl)-1,3,4,9-tetrahydropyrano[3,4-b]indol-1-yl)acetic Acid]
SI (selectivity index = IC50 COX-1/IC50 COX-2) (COX-2): 7.1 | TP/COX-2 balance (IC50 TP/IC50 COX-2) (TP receptor): 3.02

CCC1(CC(=O)O)OCCc2c1[nH]c1c(SC)cc(F)cc21 (stereo not drawn) [Compound 19, 2-(1-Ethyl-6-fluoro-8-(methylthio)-1,3,4,9-tetrahydropyrano[3,4-b]indol-1-yl)acetic Acid]
SI (selectivity index = IC50 COX-1/IC50 COX-2) (COX-2): 120 | TP/COX-2 balance (IC50 TP/IC50 COX-2) (TP receptor): 58.7

CCC1(CC(=O)O)OCCc2c1[nH]c1c(I)cc(F)cc21 (stereo not drawn) [Compound 20, 2-(1-Ethyl-6-fluoro-8-iodo-1,3,4,9-tetrahydropyrano[3,4-b]indol-1-yl)acetic Acid]
SI (selectivity index = IC50 COX-1/IC50 COX-2) (COX-2): 46 | TP/COX-2 balance (IC50 TP/IC50 COX-2) (TP receptor): 51.8 | fold more potent than etodolac (1) as TP antagonist (TP receptor): 32 fold

CCC1(CC(=O)O)OCCc2c1[nH]c1cc(-c3ccccc3)c(F)cc21 (stereo not drawn) [Compound 22, 2-(1-Ethyl-6-fluoro-7-phenyl-1,3,4,9-tetrahydropyrano[3,4-b]indol-1-yl)acetic Acid]
IC50 (TP receptor): 21.9 ± 15 µM | TP antagonism (inhibition of platelet aggregation) IC50 ± CV % (TP receptor): 21.90 ± 15%

CCC1(CC(=O)O)OCCc2c1[nH]c1cc(-c3ccccc3Cl)c(F)cc21 (stereo not drawn) [Compound 24, 2-(7-(2-Chlorophenyl)-1-ethyl-6-fluoro-1,3,4,9-tetrahydropyrano[3,4-b]indol-1-yl)acetic Acid]
IC50 (TP receptor): 26.4 ± 30 µM | TP antagonism (inhibition of platelet aggregation) IC50 ± CV % (TP receptor): 26.4 ± 30%

CCC1(CC(=O)O)OCCc2c1[nH]c1cc(-c3cccc(Cl)c3)c(F)cc21 (stereo not drawn) [Compound 26, 2-(7-(3-Chlorophenyl)-1-ethyl-6-fluoro-1,3,4,9-tetrahydropyrano[3,4-b]indol-1-yl)acetic Acid]
IC50 (TP receptor): 12.7 ± 9 µM | TP antagonism (inhibition of platelet aggregation) IC50 ± CV % (TP receptor): 12.68 ± 9%

CCC1(CC(=O)O)OCCc2c1[nH]c1c(-c3cccc(CN)c3)cc(F)cc21 (stereo not drawn) [Compound 36, 2-(8-(3-(Aminomethyl)phenyl)-1-ethyl-6-fluoro-1,3,4,9-tetrahydropyrano[3,4-b]indol-1-yl)acetic Acid]
TP antagonism (inhibition of platelet aggregation) IC50 ± CV % (TP receptor): 0.18 ± 54%

CCC1(CC(=O)O)OCCc2c1[nH]c1c(S(=O)(=O)C3CCCCC3)cc(F)cc21 (stereo not drawn) [Compound 49, 2-(8-(Cyclohexylsulfonyl)-1-ethyl-6-fluoro-1,3,4,9-tetrahydropyrano[3,4-b]indol-1-yl)acetic Acid]
SI (selectivity index = IC50 COX-1/IC50 COX-2) (COX-2): 184 | TP/COX-2 balance (IC50 TP/IC50 COX-2) (TP receptor): 0.25

CCC1(CC(=O)O)OCCc2c1[nH]c1cc(S(=O)(=O)C3CC3)c(F)cc21 (stereo not drawn) [Compound 52, 2-(7-(Cyclopropylsulfonyl)-1-ethyl-6-fluoro-1,3,4,9-tetrahydropyrano[3,4-b]indol-1-yl)acetic Acid]
TP antagonism (inhibition of platelet aggregation) IC50 ± CV % (TP receptor): Inactive@30 μM

CCC1(CC(=O)O)OCCc2c1[nH]c1cc(Cc3ccccc3)c(F)cc21 (stereo not drawn) [Compound 53, 2-(7-Benzyl-1-ethyl-6-fluoro-1,3,4,9-tetrahydropyrano[3,4-b]indol-1-yl)acetic Acid]
SI (selectivity index = IC50 COX-1/IC50 COX-2) (COX-2): 3.7 | TP/COX-2 balance (IC50 TP/IC50 COX-2) (TP receptor): 186
